From US9884041B2 (YONSEI […], INC., priority 2010, dated 2018)

Legend:
C57BL/6J mice [1] = experiment: Body weight, food intake and visceral fat-pad weights of mice fed test diets (HFD-induced obesity); format: in vivo; conditions: HFD with 0.05% piperonal, 10 weeks
Description: (§1) The obesity-inducing control diet used in the test was high-fat diet (HFD: 40% fat calorie, 17 g lard+3% corn oil/100 g diet). […] The normal diet (ND) was prepared under AIN-76 rodent diet (American Institute of Nutrition, Report of the American Institute of Nutrition ad hoc committee on standards for nutritional studies. J. Nutr. 107: 1340-1348, 1977) (see Table 1). Piperonal was purchased from Sigma-Aldrich.
(§2) 5-week-old male C57BL/6J mice (Orient, Korea) were accustomed to the laboratory environment for 1 week while feeding solid feed. Then, they were randomly divided into normal diet, high-fat diet and test groups and bred for a total of 10 weeks. The diet was given between 10 and 11 a.m. every day together with water. Food intake was measured every day and body weight was measured once a week. In order to avoid transient body weight increase after feed intake, body weight was measured 2 hours after removing the feed. After fasting the test animal for at least 12 hours and anesthetizing with diethyl ether, blood, liver and visceral fat (epididymal fat, perirenal fat, mesenteric fat and retroperitoneal fat) were taken and weighed after washing with 0.1 M PBS (pH 7.4). Blood taken from the abdominal aorta was centrifuged at 1000×g for 15 minutes for the separation of plasma.
The food efficiency ratio was calculated by dividing the total body weight gain during the experimental period (g) by the total food intake (g) (FIGS. 1 and 2).

C57BL/6J mice [2] = experiment: Plasma lipid and glucose levels of mice fed test diets; format: in vivo; conditions: HFD with 0.05% piperonal, 10 weeks
Description: as §1, §2
After 10 weeks of breeding, total cholesterol, HDL-cholesterol, triglyceride and glucose levels in the plasma and lipid levels in the liver tissue were measured as follows. Total cholesterol, HDL-cholesterol, triglyceride, free fatty acid and glucose levels in the plasma were measured twice for each using a commercially available kit (Bio Clinical System). LDL+VLDL cholesterol levels in the blood were calculated by subtracting HDL-cholesterol levels from the total cholesterol levels.

C57BL/6J mice [3] = experiment: Liver weights, liver lipid levels and liver function indicators (ALT, AST) of mice fed test diets; format: in vivo; conditions: HFD with 0.05% piperonal, 10 weeks
Description: as §1, §2
Lipids were extracted from the liver tissue according to Folch et al.'s method (Folch J et al., J Biol Chem. 226: 497-509 (1957)). After adding 1 mL of distilled water to 0.25 g of liver tissue, the liver tissue was homogenized using a Polytron homogenizer (IKA-Werke GmbH & Co., Ultra-Turrax, Staufen, Germany). After adding 5 mL of chloroform:methanol solution (2:1, v/v) to the homogenate and mixing well, the mixture was centrifuged at 1000×g for 10 minutes. After adding 2 mL of chloroform:methanol solution (2:1, v/v) again to the supernatant, the same procedure was repeated to completely separate the lipid components of the liver. After adding 3 mL of chloroform:methanol:0.05% CaCl2 (3:48:47, v/v/v) solution to the remaining pellets and mixing well for 1 minute, followed by centrifugation at 1000×g for 10 minutes, the resulting pellets were completely dried with nitrogen gas. The dried lipids were dissolved in 1 mL of methanol and then analyzed.
The same kit (Bio Clinical System) as that used for the plasma analysis was used to measure the triglyceride, cholesterol and free fatty acid levels of the liver tissue.
The activity of ALT (alanine aminotransferase) and AST (aspartate aminotransferase) used as liver function indicator were measured twice for each using a commercially available kit (Bio Clinical System, Korea).

UCP1 = experiment: RT-PCR analysis of UCP1 gene expression in mouse visceral fat tissues; format: in vivo, mice; conditions: mRNA by RT-PCR, normalized to GAPDH, to the similar level to the ND group
Text: (§3) FIG. 7 represents the expression profiles of UCPs genes in the visceral fat tissues of mice. The left panel represents images of RT-PCR analysis results for UCP1 and UCP3, and the right panel represents relative expression levels of these genes. The data were normalized to GAPDH mRNA levels and expressed as relative values to those from ND mouse. The results are represented as mean±SEM (standard error) of values obtained from RNA sample of eight mice with three independent experiments. The characters above the bars indicate significant difference in dietary groups by one-way analysis of variance (ANOVA) test and Duncan's multiple range test (P<0.05).
(§4) After adding 1 mL of Trizol agent per 0.1 g of visceral fat tissues, the mixture was homogenized and centrifuged at 12,000×g for 10 min at 4° C. The supernatant was transferred to a new tube and 200 μl of chloroform was added to the tube, followed by vortexing. The same procedure was repeated twice and then the supernatant was transferred to a new tube, followed by addition of isopropanol and the supernatant at 1:1 ratio. […] The RNA sample concentration was measured at a wavelength of 260 nm and 280 nm using a UV/VIS spectrophotometer (Beckman coulter, DU730) and the integrity of RNA sample was verified by agarose gel electrophoresis. […]

UCP3 = experiment: RT-PCR analysis of UCP3 gene expression in mouse visceral fat tissues; format: in vivo, mice; conditions: mRNA by RT-PCR, normalized to GAPDH, to the similar level to the ND group
Text: as §3, §4

C/EBPα = experiment: RT-PCR analysis of C/EBPα gene expression in mouse liver tissues; format: in vivo, mice; conditions: mRNA by RT-PCR, vs HFD, to levels similar for the ND
Text: (§5) FIG. 8 represents the expression profiles of genes relating to lipogenesis in mice liver tissues. The left panel represents images of RT-PCR analysis results for C/EBPα, PPARγ2 and aP2, and the right panel represents relative expression levels of these genes. The data were normalized to GAPDH mRNA levels and expressed as relative values to those from ND mouse. The results are represented as mean±SEM (standard error) of values obtained from RNA sample of eight mice with three independent experiments. The characters above the bars indicate significant difference in dietary groups by one-way analysis of variance (ANOVA) test and Duncan's multiple range test (P<0.05).
as §4, with “liver” for “visceral fat”

PPARγ2 = experiment: RT-PCR analysis of PPARγ2 gene expression in mouse liver tissues; format: in vivo, mice; conditions: mRNA by RT-PCR, vs HFD, to levels similar for the ND
Text: as §5
as §4, with “liver” for “visceral fat”

aP2 = experiment: RT-PCR analysis of aP2 gene expression in mouse liver tissues; format: in vivo, mice; conditions: mRNA by RT-PCR, vs HFD, to levels similar for the ND
Text: as §5
as §4, with “liver” for “visceral fat”

TNF-α = experiment: RT-PCR analysis of TNF-α gene expression in mouse liver tissues; format: in vivo, mice; conditions: mRNA by RT-PCR
Text: as §5, with “9” for “8”, “inflammation” for “lipogenesis”, “TNFα” for “C/EBPα, PPARγ2”, “IL-6,” for “aP2,”
as §4, with “liver” for “visceral fat”

IL-6 = experiment: RT-PCR analysis of IL-6 gene expression in mouse liver tissues; format: in vivo, mice; conditions: mRNA by RT-PCR
Text: as §5, with “9” for “8”, “inflammation” for “lipogenesis”, “TNFα” for “C/EBPα, PPARγ2”, “IL-6,” for “aP2,”
as §4, with “liver” for “visceral fat”

[4] = system: cancinogenesis animal model; conditions: in vivo; cited from earlier work
patients = conditions: sense of smell stimulated through nasal cannula during MRI for cancer diagnosis; cited from earlier work
rats [5] = conditions: cited from earlier work
human = human took 10 g of piperonal; cited from earlier work
rats [6] = conditions: feed containing 0.1% piperonal and 0.5% piperonal, 2 years; cited from earlier work

O=Cc1ccc2c(c1)OCO2 [piperonal, 1,3-benzodioxole-5-carboxaldehyde]
decrease of body weight gain as compared to HFD (C57BL/6J mice [1]): 19%
reduced weight of epididymal fat-pad as compared to HFD (C57BL/6J mice [1]): 11%
reduced weight of mesenteric fat-pad as compared to HFD (C57BL/6J mice [1]): 20%
reduced weight of perirenal fat-pad as compared to HFD (C57BL/6J mice [1]): 35%
reduced weight of retroperitoneal fat-pad as compared to HFD (C57BL/6J mice [1]): 8%
reduction of total visceral fat weight, POD group vs HFD group (C57BL/6J mice [1]; P<0.001): 15%
daily food intake (C57BL/6J mice [1]; vs HFD): no significant change
lower atherogenic indices as compared to HFD group (C57BL/6J mice [2]): 17%
lower plasma level of free fatty acid as compared to HFD group (C57BL/6J mice [2]): 17%
lower plasma level of total cholesterol as compared to HFD group (C57BL/6J mice [2]): 14%
lower plasma level of triglyceride as compared to HFD group (C57BL/6J mice [2]): 21%
reduction of fasting blood sugar level as compared to HFD (C57BL/6J mice [2]): 27%
lower plasma level of LDL+VLDL cholesterol as compared to HFD group (C57BL/6J mice [2]; total cholesterol minus HDL-cholesterol): 18%
decrease of absolute organ weight of liver as compared to HFD (C57BL/6J mice [3]): 23%
decreased level of cholesterol in liver tissue as compared to HFD (C57BL/6J mice [3]): 39%
decreased level of free fatty acid in liver tissue as compared to HFD (C57BL/6J mice [3]): 27%
decreased level of triglyceride in liver tissue as compared to HFD (C57BL/6J mice [3]): 13%
decreased plasma activity of ALT as compared to HFD group (C57BL/6J mice [3]): 27%
decreased plasma activity of AST as compared to HFD group (C57BL/6J mice [3]): 15%
HFD-induced decrease in expression of UCP1 gene (UCP1): significantly reversed
HFD-induced decrease in expression of UCP3 gene (UCP3): significantly reversed
expression of C/EBPα gene (C/EBPα): significantly decreased
expression of PPARγ2 gene (PPARγ2): significantly decreased
expression of aP2 gene (aP2): significantly decreased
HFD-induced elevation in the expression of TNF-α (TNF-α): significantly reversed
HFD-induced elevation in the expression of IL-6 (IL-6): significantly reversed
effect in carcinogenesis animal model [4]: cancer inhibitory effect
anxiety of patients during MRI (patients): relief from anxiety
LD50 (rats [5]): more than 2,700 mg/kg
toxicity in human (human): no toxicity
toxicity in rats (rats [6]): no toxicity
